Test results as given in patent US11104661B1, “Inhibiting human integrin (α-4) (β-7)” (Morphic Therapeutic, Inc., priority 2019, dated 2021).

Each molecule was assayed against T1, α4β7 (Homo sapiens, UniProt P13612+P26010) (assay: Cell adhesion assay, RPMI8866 cells on MAdCAM coated plates (Example 7)). Conditions: RPMI8866 cells adhering to recombinant human MAdCAM; Table 3; read-out: CA Assay (Example 7).
T1 construct: endogenous in cells; host or cells: RPMI 8866 cells
T1 sequence (P13612 34-1032): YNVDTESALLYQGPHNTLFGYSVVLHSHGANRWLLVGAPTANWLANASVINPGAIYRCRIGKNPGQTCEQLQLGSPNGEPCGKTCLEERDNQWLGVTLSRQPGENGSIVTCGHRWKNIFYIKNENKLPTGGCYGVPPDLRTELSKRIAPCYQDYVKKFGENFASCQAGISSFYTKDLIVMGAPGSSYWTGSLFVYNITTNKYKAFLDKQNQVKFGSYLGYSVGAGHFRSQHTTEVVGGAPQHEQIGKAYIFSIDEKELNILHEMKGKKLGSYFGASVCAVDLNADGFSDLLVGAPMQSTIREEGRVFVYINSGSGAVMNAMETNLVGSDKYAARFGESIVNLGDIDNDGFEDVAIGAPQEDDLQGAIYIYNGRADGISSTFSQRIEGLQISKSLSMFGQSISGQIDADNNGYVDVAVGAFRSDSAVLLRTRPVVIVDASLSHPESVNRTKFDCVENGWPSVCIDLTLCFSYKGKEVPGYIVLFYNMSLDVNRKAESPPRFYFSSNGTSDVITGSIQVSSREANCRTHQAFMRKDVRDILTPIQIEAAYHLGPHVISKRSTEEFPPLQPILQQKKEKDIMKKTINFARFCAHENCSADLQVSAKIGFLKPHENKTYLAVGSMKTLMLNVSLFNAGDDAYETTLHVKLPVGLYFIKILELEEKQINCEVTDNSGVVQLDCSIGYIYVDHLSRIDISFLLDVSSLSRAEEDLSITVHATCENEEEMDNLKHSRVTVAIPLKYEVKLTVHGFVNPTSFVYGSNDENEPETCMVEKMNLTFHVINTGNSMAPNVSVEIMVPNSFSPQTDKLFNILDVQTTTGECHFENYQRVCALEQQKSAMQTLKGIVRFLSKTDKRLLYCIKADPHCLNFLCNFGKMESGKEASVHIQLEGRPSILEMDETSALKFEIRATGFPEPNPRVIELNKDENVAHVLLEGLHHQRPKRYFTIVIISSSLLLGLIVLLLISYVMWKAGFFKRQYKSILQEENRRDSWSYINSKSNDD
T1 sequence (P26010 20-798): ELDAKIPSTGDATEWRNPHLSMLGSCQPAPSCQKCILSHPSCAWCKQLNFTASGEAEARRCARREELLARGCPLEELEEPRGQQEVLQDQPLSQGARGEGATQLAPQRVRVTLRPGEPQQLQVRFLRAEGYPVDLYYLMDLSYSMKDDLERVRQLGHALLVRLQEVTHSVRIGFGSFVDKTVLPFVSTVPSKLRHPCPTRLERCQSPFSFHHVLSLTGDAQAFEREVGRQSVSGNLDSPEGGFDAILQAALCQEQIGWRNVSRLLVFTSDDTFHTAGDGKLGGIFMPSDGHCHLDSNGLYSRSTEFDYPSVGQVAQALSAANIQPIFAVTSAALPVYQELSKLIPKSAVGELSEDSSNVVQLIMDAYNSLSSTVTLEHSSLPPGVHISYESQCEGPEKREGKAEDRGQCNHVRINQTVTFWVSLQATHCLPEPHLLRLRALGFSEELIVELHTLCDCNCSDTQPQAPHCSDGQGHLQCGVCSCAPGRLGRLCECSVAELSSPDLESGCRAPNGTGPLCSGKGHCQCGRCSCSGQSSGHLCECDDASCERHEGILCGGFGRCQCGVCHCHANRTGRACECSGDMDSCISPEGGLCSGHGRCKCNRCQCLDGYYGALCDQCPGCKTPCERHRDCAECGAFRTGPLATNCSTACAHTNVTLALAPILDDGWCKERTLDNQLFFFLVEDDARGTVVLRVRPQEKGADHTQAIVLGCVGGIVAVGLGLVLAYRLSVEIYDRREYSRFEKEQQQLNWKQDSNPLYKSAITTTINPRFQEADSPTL
Format: cell-based
Protocol: Three in vitro assays were used to examine the α4β7 mechanistic process used by cells: 1) ligand:receptor affinity, 2) the avidity of those interactions on a cell's surface, and 3) how those interactions fare under an imposing force. In Example 5, a Fluorescence Polarization (FP) assay is used to measure compound activity through binding competition with the fluorescein-labeled peptide. In Example 6, the potency of compounds against α4β7 is measured in the cell-based ligand binding assay (LBA), using RPMI 8866 cells incubated with the compound samples in competition with soluble MAdCAM-1 ligand. In Example 7, activity of compounds is evaluated in a cell adhesion assay that mechanistically tests what occurs in vivo when trafficking cells utilize α4β7 to adhere to MAdCAM-1 expressing HEVs of the gut during the extravasation process. In the cell adhesion assay of Example 7, a MAdCAMI1-(Fc) is coated on plastic, and α4β7 expressing cells (RPMI-8866) are allowed to adhere to the coated surface in the presence of the test compounds. Next, the force of washing with buffer is applied to cells thereby testing the strength of that adhesion. Unattached cells are removed and the remaining adherent cells are quantified.
Example 7 describes a cell adhesion assay.
To each well of a 96 well plate, 100 ug of recombinant human MAdCAM in 100 ul PBS is added and incubated overnight at 4° C. After incubation MAdCAM is removed by aspiration and 200 ul of PBS+1% BSA is added to block the plate for 2 hours at 37° C. and 5% CO2. During this incubation dilution curves of compound are made in 100% DMSO in 96 well V bottom plates. 1.75 ul of diluted compounds are then transferred to a new 96 well U bottom plate containing 20 ul of assay media (phosphate free DMEM+25 mM HEPES+1% BSA). To this an additional 155 ul of assay media is added with mixing by pipetting up and down. This mixture is allowed to incubate for 15 minutes at 37° C. and 5% CO2. After incubation 175 ul of assay media containing 2e6/mL RPMI8866 cells is added to compound containing wells without mixing and plate is allowed to incubate for another 15 minutes at 37° C. and 5% CO2. During this incubation MAdCAM coated plates are removed from incubator and washed twice with 200 ul PBS+0.1% BSA. […] This plate is then incubated at 37° C. and 5% CO2 for 1 hour. After incubation plates are washed twice with 200 ul and once with 50 ul of phenol free RPMI+1% BSA. A final 50 ul of phenol free RPMI+1% BSA is added to wells after last wash. Next 50 ul of Promega cell titer glow is added to the wells. Plate is incubated on shaker for 2 minutes at 200 RPM followed by another 8 minutes off shaker before having the luminescence read on a Biotek Citation 5 plate reader. Raw data is converted to % inhibition compared to bottom of curve and analyzed using a 4-parameter non linear curve in Prism to determine IC50 and IC90.
For `Cc1cc(-c2c(C)cccc2C)cc([C@H](CC(=O)O)NC(=O)C(CC(C)C)n2cc(CCN3CC(F)C3)cc(F)c2=O)c1F` (single isomer, unassigned) [AV-P2], the IC50 was less than 5 nM.
For `Cc1cc(-c2c(C)ccc(F)c2C)cc([C@H](CC(=O)O)NC(=O)C(CC(C)C)n2cc(CCN3CCC3)c(C(F)(F)F)cc2=O)c1F` (single isomer, unassigned) [AF-P2], the IC50 was less than 5 nM.
In the case of `COc1ccc(C)c(-c2cc(C)c(F)c([C@H](CC(=O)O)NC(=O)C(CC(C)C)n3cc(CCN4CCC4)c(C(F)(F)F)cc3=O)c2)c1C` (single isomer, unassigned) [AG-P2], the IC50 is reported as less than 5 nM.
`Cc1cc(C)c(-c2cc(C)c(F)c([C@H](CC(=O)O)NC(=O)C(CC(C)C)n3cc(CCN(C)C)c(C(F)(F)F)cc3=O)c2)c(C)c1` (single isomer, unassigned) [AC-P2] was tested, and the IC50 was less than 5 nM.
`Cc1cccc(C)c1-c1cc([C@H](CC(=O)O)NC(=O)C(CC(C)C)n2cc(CCN3CCC3)c(C(F)(F)F)cc2=O)c(F)c(C(F)(F)F)c1` (single isomer, unassigned) [G-P2] was tested, and the IC50 was less than 5 nM.

Same assay, conditions: RPMI8866 cells adhering to recombinant human MAdCAM; Table 4 comparative compounds; read-out: CA Assay (Example 7)
Molecule `CC(C)C[C@@H](C(=O)N[C@@H](CC(=O)O)c1ccc(-c2ccccc2)cc1)n1cc(CCN(C)C)c(C(F)(F)F)cc1=O` has an IC50 greater than 500 nM.
For `CC(C)C[C@@H](C(=O)N[C@@H](CC(=O)O)c1ccc(-c2ccc(F)cc2)cc1)n1cc(CCN2CC(F)C2)cc(F)c1=O`, the IC50 was greater than 500 nM.
Work on `Cc1cccc(C)c1-c1cncc([C@H](CC(=O)O)NC(=O)[C@H](CC(C)C)n2ccc(C(F)(F)F)cc2=O)c1` yielded an IC50 of 10 to 50 nM.
Work on `Cc1ccccc1-c1cccc([C@H](CC(=O)O)NC(=O)[C@H](CC(C)C)n2ccccc2=O)c1` yielded an IC50 greater than 500 nM.
With `Cc1cccc(C)c1-c1cccc([C@H](CC(=O)O)NC(=O)[C@H](CC(C)C)n2cc(CN3CC(F)C3)ccc2=O)c1` [drawing 599] the IC50 was less than 5 nM.
`Cc1cccc(C)c1-c1cccc([C@H](CC(=O)O)NC(=O)[C@H](CC(C)C)n2cccc(CCN(C)C)c2=O)c1` gave an IC50 greater than 100 nM.
Molecule `Cc1cccc(C)c1-c1cncc([C@H](CC(=O)O)NC(=O)[C@H](CC(C)C)n2ccccc2=O)c1` has an IC50 greater than 100 nM.
For `Cc1cccc(C)c1-c1cncc([C@H](CC(=O)O)NC(=O)C(CC(C)C)n2cc(C(F)(F)F)ccc2=O)c1` (stereo partly drawn), the IC50 was greater than 50 nM.
`Cc1ccn([C@@H](CC(C)C)C(=O)N[C@@H](CC(=O)O)c2cncc(-c3c(C)cccc3C)c2)c(=O)c1` was tested, and the IC50 was 10 to 50 nM.
`Cc1ccc([C@@H](C(=O)N[C@@H](CC(=O)O)c2cncc(-c3c(C)cccc3C)c2)N2CC(C)CCC2=O)cc1` (stereo partly drawn) was tested, and the IC50 was greater than 500 nM.
`Cc1ccccc1-c1cccc([C@H](CC(=O)O)NC(=O)[C@H](CC(C)C)n2ccncc2=O)c1` was tested, and the IC50 was greater than 500 nM.
In the case of `COc1ccc([C@H](CC(=O)O)NC(=O)C(CC(C)C)n2ccccc2=O)cc1-c1ccccc1C` (stereo partly drawn), the IC50 is reported as greater than 500 nM.
Molecule `Cc1cccc(C)c1-c1cccc([C@H](CC(=O)O)NC(=O)[C@H](CC(C)C)n2cc(CN3CC(F)C3)ccc2=O)c1` [drawing 572] has an IC50 greater than 50 nM.
For `Cc1cccc(C)c1-c1cc([C@H](CC(=O)O)NC(=O)[C@H](CC(C)C)n2ccccc2=O)ccn1`, the IC50 was greater than 500 nM.
Molecule `Cc1cccc(C)c1-c1cccc([C@H](CC(=O)O)NC(=O)[C@H](CC(C)C)n2cc(CN3CC(F)C3)ccc2=O)c1` [drawing 585] has an IC50 greater than 50 nM.
`CC(C)C[C@@H](C(=O)N[C@@H](CC(=O)O)c1ccc(-c2ccc(F)cc2)cc1)n1cc(CCN(C)C)c(C(F)(F)F)cc1=O` was tested, and the IC50 was greater than 500 nM.
`Cc1cccc(C)c1-c1cccc([C@H](CC(=O)O)NC(=O)[C@H](CC(C)C)n2cc(CN3CC(F)C3)ccc2=O)c1` [drawing 604] showed an IC50 greater than 50 nM.
`COc1cccc(F)c1-c1cccc([C@H](CC(=O)O)NC(=O)[C@H](CC(C)C)n2cnc3ccccc3c2=O)c1` showed an IC50 greater than 500 nM.
With `Cc1ccccc1-c1cccc([C@H](CC(=O)O)NC(=O)[C@H](CC(C)C)n2cccc(C)c2=O)c1` the IC50 was greater than 500 nM.
In the case of `Cc1cccc(C)c1-c1cccc([C@H](CC(=O)O)NC(=O)[C@H](CC(C)C)n2cc(CN3CC(F)C3)ccc2=O)c1` [drawing 577], the IC50 is reported as greater than 50 nM.
For `Cc1cccc(C)c1-c1cccc([C@H](CC(=O)O)NC(=O)[C@H](CC(C)C)n2cc(CN3CC[C@@H](F)C3)ccc2=O)c1`, the IC50 was 10 to 50 nM.
Work on `Cc1cccc(C)c1-c1cccc([C@H](CC(=O)O)NC(=O)[C@H](CC(C)C)n2cc(CCN(C)C)ccc2=O)c1` yielded an IC50 of 5 to 10 nM.
With `Cc1cccc(C)c1-c1cncc([C@H](CC(=O)O)NC(=O)[C@H](CC(C)C)N2CC[C@@H](C(F)(F)F)CC2=O)c1` the IC50 was greater than 50 nM.
`Cc1cccc(C)c1-c1cccc([C@H](CC(=O)O)NC(=O)[C@H](CC(C)C)n2cc(CN3CC(F)C3)ccc2=O)c1` [drawing 594] gave an IC50 greater than 50 nM.
Work on `Cc1cccc(C)c1-c1cncc([C@H](CC(=O)O)NC(=O)[C@H](CC(C)C)n2cc(CN3CC(F)C3)ccc2=O)c1` yielded an IC50 greater than 50 nM.
Work on `COC[C@@H](C(=O)N[C@@H](CC(=O)O)c1cccc(-c2c(C)cccc2C)c1)n1ccc(C)cc1=O` yielded an IC50 greater than 500 nM.
Molecule `CC(C)C[C@@H](C(=O)N[C@@H](CC(=O)O)c1ccc(-c2ccccc2)cc1)n1cc(CCN2CC(F)C2)cc(F)c1=O` has an IC50 greater than 500 nM.
Work on `Cc1cccc(C)c1-c1cccc([C@H](CC(=O)O)NC(=O)[C@H](CC(C)C)n2ccc(CCN(C)C)cc2=O)c1` yielded an IC50 of 10 to 50 nM.
Molecule `Cc1ccccc1-c1cc([C@H](CC(=O)O)NC(=O)[C@H](CC(C)C)n2ccccc2=O)ccc1C` has an IC50 greater than 500 nM.
`Cc1ccccc1-c1cc([C@H](CC(=O)O)NC(=O)C(CC(C)C)n2ccccc2=O)ccn1` (stereo partly drawn) showed an IC50 greater than 500 nM.
`Cc1cccc(C)c1-c1cccc([C@H](CC(=O)O)NC(=O)[C@H](CC(C)C)n2cc(CN3CC(F)C3)ccc2=O)c1` [drawing 589] showed an IC50 greater than 50 nM.
